Experimental data published in patent US20210255193A1, “LYSINE REACTIVE PROBES AND USES THEREOF” (The Scripps Research Institute, priority 2017, published 2021).

Experiments:
Type in all cases: binding
TGIF2-SIN3A interaction = target: T1, TGIF2-SIN3A interaction (Homo sapiens, UniProt Q96ST3); assay: ABPP-SILAC IP experiment for SIN3A interacting proteins; details: 21 50 μM
T1 construct: expressed in transfected cells; host or cells: SILAC HEK 293T
Method: (§1) ABPP-SILAC IP experiment for SIN3A interacting proteins. All SILAC experiments were performed using the isotopically labeled human HEK 293T cell line generated by 8 passages in either light (100 μg ml^−1 each of L-arginine and L-lysine) or heavy (100 μg ml^−1 each of [^13C6^15N4]L-arginine and [^13C6^15N2]L-lysine) SILAC DMEM media (Thermo Scientific) supplemented with 10% dialyzed fetal calf serum, penicillin, streptomycin and glutamine. 2×10^5 SILAC HEK 293T cells were plated in 6 cm dishes in either heavy or light labeled SILAC media. Cells were transfected the next day with 1 μg of FLAG-GFP, or FLAG-SIN3A wild type, K155R, or K155W constructs as indicated. After 48 hours, cells were rinsed with ice-cold PBS and suspended in cold IP-lysis buffer (0.5% Chaps, 50 mM Hepes pH 7.4, 150 mM NaCl, and EDTA-free protease inhibitors and phosphatase inhibitors (Roche)) by gentle sonication. Samples were rotated for 30 minutes at 4° C. to complete lysis. For compound treatment experiments, 50 μM (final concentration) of 21 was added to samples prior to rotation. Samples were clarified by centrifugation for 1 minute at 16,000 rpm, and protein concentration was measured using the DC Protein Assay kit (Bio-Rad). Samples were normalized to 2 mg/mL by addition of cold IP-lysis buffer. 25 μL of anti-FLAG-M2 beads was added to the clarified supernatant and incubated for 3 h while rotating at 4° C. Beads were washed three times with cold PBS, and then eluted with 40 μL of […] for 10 min at 65° C. […] LC-MS spectra were collected and analyzed as described above with the following modifications. […] A list of all proteins enriched preferentially by SIN3A was generated from a comparison of SIN3A wild type vs GFP immunoprecipitations, including all proteins with at least two distinct quantified peptide sequences and a median ratio greater than or equal to 5 (R>5). […] Furthermore, if there were at least two quantified unique peptides, the median ratio of each protein's unique peptides (not occurring in any other human protein) were reported.

[1] = target: T2, SIN3A-interacting proteins MAX, MNT and MXI1 (Homo sapiens, UniProt Q96ST3); assay: as above; details: 21 50 μM
T2 construct: expressed in transfected cells; host or cells: SILAC HEK 293T
T2 sequence (Q96ST3 1-400): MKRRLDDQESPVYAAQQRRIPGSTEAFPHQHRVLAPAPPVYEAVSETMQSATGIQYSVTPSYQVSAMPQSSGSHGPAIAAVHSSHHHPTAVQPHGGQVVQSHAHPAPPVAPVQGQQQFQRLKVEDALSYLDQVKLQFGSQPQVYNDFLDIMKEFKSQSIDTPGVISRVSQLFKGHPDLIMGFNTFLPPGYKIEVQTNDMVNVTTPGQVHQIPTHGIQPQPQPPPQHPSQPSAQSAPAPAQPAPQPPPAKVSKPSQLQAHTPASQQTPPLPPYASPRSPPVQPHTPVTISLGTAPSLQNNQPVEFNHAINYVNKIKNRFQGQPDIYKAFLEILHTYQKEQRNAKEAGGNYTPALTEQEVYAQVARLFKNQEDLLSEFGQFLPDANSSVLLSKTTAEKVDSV
Method: as §1

TGIF1-SIN3A interaction = target: T3, TGIF1-SIN3A interaction (Homo sapiens, UniProt Q96ST3); assay: as above; details: 21 50 μM
T3 construct: expressed in transfected cells; host or cells: SILAC HEK 293T
T3 sequence (Q96ST3 1-400): as above
Method: as §1

[2] = target: T4, interaction between SIN3A and TGIF2 (Homo sapiens, UniProt Q96ST3); assay: Co-IP experiment, anti-Myc western blot; details: anti-Myc blotting
T4 construct: flag-SIN3A or the indicated Flag-SIN3A mutants (a.a. 1-400), or Flag-GFP, were co-expressed in HEK 293T with Myc-TGIF2; expressed in transfected cells; host or cells: HEK 293T
T4 sequence (Q96ST3 1-400): as above
Method: Co-IP experiment for the interaction between SIN3A and TGIF1 and TGIF2. 6 cm dishes of HEK 293T cells were transfected at 40% confluency with 600 ng of FLAG-GFP, FLAG-SIN3A WT, K155W, or K155R construct, and 600 ng of MYC-TGIF1 or MYC-TGIF2 as indicated. After 48 hours, cells were lysed and enriched as described above. Following elution in 40 μL urea, 15 μL of loading buffer was added to samples. 15 μL of both input (10%) and outputs were loaded onto an SDS-PAGE gel.
Western blotting. Proteins were resolved by SDS-PAGE (3 h, 300 V) and transferred to nitrocellulose membranes (90 min, 60 V), blocked with 5% milk in TBS-T and probed with the indicated antibodies in 5% milk in TBS-T. The primary antibodies and the dilutions used are as follows: anti-Flag (Sigma Aldrich, F1804, 1:3,000), anti-Myc (Cell Signalling, 2272S, 1:5,000), anti-actin (Cell Signaling, 3700, 1:3,000) and anti-GAPDH (Santa Cruz, 32233, 1:10,000). Blots were incubated with primary antibodies overnight at 4° C. with rocking and were then washed (3×5 min, TBS-T) and incubated with secondary antibodies (LICOR, IRDye 800CW or IRDye 680LT, 1:10,000) for 1 h at ambient temperature. Blots were further washed (3×5 min, TBST) and visualized on a LICOR Odyssey Scanner. Relative band intensities were quantified using ImageJ software.

T1 sequence (Q96ST3 1-400): as above

effect on TGIF2-SIN3A interaction (TGIF2-SIN3A interaction): marginal effect | effect on co-immunoprecipitation of MAX, MNT and MXI1 with WT-SIN3A [1]: not affected | co-immunoprecipitation of TGIF2 with SIN3A [2]: partial blockade
SMILES: O=C(Oc1c(F)c(F)c(F)c(F)c1F)c1cc(C(F)(F)F)cc(C(F)(F)F)c1 [fragment 21, Pentafluorophenyl 3,5-bis(trifluoromethyl)benzoate]
effect on TGIF1-SIN3A interaction (TGIF1-SIN3A interaction): strongly blocked the TGIF1-SIN3A interaction
